From PubChem BioAssay AID248 (DTP/NCI, 2004)
Several values for one entry are separate records, joined by “and”; a condition that tells them apart may be missing. Equal values may be shown once. Toxic doses and inconclusive results are not listed. Rule as the data show it: active = T/C of 150% or more; inactive = T/C below 125%.

Tested on: L1210 leukemia ip in BDF1 mice, survival T/C
Assay: NCI In Vivo Anticancer Drug Screen. Data for tumor model L1210 Leukemia (intraperitoneal) in B6D2F1 (BDF1) mice
Conditions: endpoint: mean survival time, higher = longer survival
Method in brief: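 Value reflects the ratio of survival in compound-treated mice to survival in vehicle-treated controls, with both groups carrying the same transplanted tumor.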

Measured: T/C

COC(=O)[C@@H](O)[C@](O)(CCC(C)C)C(=O)O[C@@H]1C(OC)=C[C@]23CCCN2CCc2cc4c(cc2[C@H]13)OCO4
inactive: dose: 0.12 mg/kg/injection, schedule: Q03HX024 (ip), vehicle: saline 98 % of control | dose: 0.25 mg/kg/injection, schedule: Q01DX009 (ip), vehicle: saline 108 % of control | dose: 0.25 mg/kg/injection, schedule: Q03HX008 (ip), vehicle: saline 106 % of control | dose: 0.25 mg/kg/injection, schedule: Q03HX016 (ip), vehicle: saline 101 % of control | dose: 0.25 mg/kg/injection, schedule: Q03HX024 (ip), vehicle: saline 107 % of control | dose: 0.5 mg/kg/injection, schedule: Q01DX006 (iv), vehicle: saline 100 % of control | dose: 0.5 mg/kg/injection, schedule: Q01DX009 (ip), vehicle: saline 107 % of control | dose: 0.5 mg/kg/injection, schedule: Q01DX009 (oral), vehicle: saline 103 % of control | dose: 0.5 mg/kg/injection, schedule: Q01DX009 (sc), vehicle: saline 104 % of control | dose: 0.5 mg/kg/injection, schedule: Q03HX008 (ip), vehicle: saline 104 % of control | dose: 0.5 mg/kg/injection, schedule: Q03HX016 (ip), vehicle: saline 108 % of control | dose: 0.5 mg/kg/injection, schedule: Q03HX024 (ip), vehicle: saline 100 % of control | dose: 0.93 mg/kg/injection, schedule: Q01DX009 (ip), vehicle: water 106 % of control | dose: 1.0 mg/kg/injection, schedule: Q01DX006 (iv), vehicle: saline 102 % of control | dose: 1.0 mg/kg/injection, schedule: Q01DX009 (ip), vehicle: saline 115 % of control | dose: 1.0 mg/kg/injection, schedule: Q01DX009 (oral), vehicle: saline 93 % of control | dose: 1.0 mg/kg/injection, schedule: Q01DX009 (sc), vehicle: saline 104 % of control | dose: 1.0 mg/kg/injection, schedule: Q03HX008 (ip), vehicle: saline 101 % of control and 106 % of control | dose: 1.0 mg/kg/injection, schedule: Q03HX016 (ip), vehicle: saline 101 % of control and 106 % of control | dose: 1.0 mg/kg/injection, schedule: Q03HX024 (ip), vehicle: saline 100 % of control and 114 % of control | dose: 1.0 mg/kg/injection, schedule: Q04DX003 (ip), vehicle: saline 106 % of control | dose: 1.85 mg/kg/injection, schedule: Q01DX009 (ip), vehicle: water 109 % of control | dose: 1.87 mg/kg/injection, schedule: Q01DX009 (ip), vehicle: water 109 % of control | dose: 1.88 mg/kg/injection, schedule: Q01DX009 (ip), vehicle: water 114 % of control | dose: 2.0 mg/kg/injection, schedule: Q01DX001 (ip), vehicle: saline 102 % of control | dose: 2.0 mg/kg/injection, schedule: Q01DX001 (iv), vehicle: saline 102 % of control | dose: 2.0 mg/kg/injection, schedule: Q01DX001 (oral), vehicle: saline 97 % of control | dose: 2.0 mg/kg/injection, schedule: Q01DX001 (sc), vehicle: saline 104 % of control | dose: 2.0 mg/kg/injection, schedule: Q01DX006 (iv), vehicle: saline 103 % of control and 108 % of control | dose: 2.0 mg/kg/injection, schedule: Q01DX009 (ip), vehicle: saline 107 % of control and 111 % of control | dose: 2.0 mg/kg/injection, schedule: Q01DX009 (oral), vehicle: saline 108 % of control | dose: 2.0 mg/kg/injection, schedule: Q01DX009 (sc), vehicle: saline 106 % of control | dose: 2.0 mg/kg/injection, schedule: Q03HX008 (ip), vehicle: saline 105 % of control and 113 % of control | dose: 2.0 mg/kg/injection, schedule: Q03HX016 (ip), vehicle: saline 96 % of control and 107 % of control | dose: 2.0 mg/kg/injection, schedule: Q03HX024 (ip), vehicle: saline 104 % of control | dose: 2.0 mg/kg/injection, schedule: Q04DX003 (ip), vehicle: saline 106 % of control | dose: 2.0 mg/kg/injection, schedule: Q08DX002 (ip), vehicle: saline 98 % of control | dose: 4.0 mg/kg/injection, schedule: Q01DX001 (ip), vehicle: saline 106 % of control | dose: 4.0 mg/kg/injection, schedule: Q01DX001 (iv), vehicle: saline 101 % of control | dose: 4.0 mg/kg/injection, schedule: Q01DX001 (oral), vehicle: saline 100 % of control | dose: 4.0 mg/kg/injection, schedule: Q01DX001 (sc), vehicle: saline 114 % of control | dose: 4.0 mg/kg/injection, schedule: Q01DX006 (iv), vehicle: saline 103 % of control and 111 % of control | dose: 4.0 mg/kg/injection, schedule: Q01DX009 (ip), vehicle: saline 116 % of control and 124 % of control | dose: 4.0 mg/kg/injection, schedule: Q01DX009 (oral), vehicle: saline 113 % of control and 114 % of control and 120 % of control | dose: 4.0 mg/kg/injection, schedule: Q01DX009 (sc), vehicle: saline 113 % of control | dose: 4.0 mg/kg/injection, schedule: Q03HX008 (ip), vehicle: saline 114 % of control | dose: 4.0 mg/kg/injection, schedule: Q03HX016 (ip), vehicle: saline 103 % of control | dose: 4.0 mg/kg/injection, schedule: Q04DX003 (ip), vehicle: saline 110 % of control and 113 % of control | dose: 4.0 mg/kg/injection, schedule: Q08DX002 (ip), vehicle: saline 108 % of control | dose: 5.0 mg/kg/injection, schedule: Q01DX009 (ip), vehicle: saline 116 % of control | dose: 8.0 mg/kg/injection, schedule: Q01DX001 (ip), vehicle: saline 104 % of control and 105 % of control | dose: 8.0 mg/kg/injection, schedule: Q01DX001 (iv), vehicle: saline 106 % of control and 115 % of control | dose: 8.0 mg/kg/injection, schedule: Q01DX001 (oral), vehicle: saline 100 % of control | dose: 8.0 mg/kg/injection, schedule: Q01DX001 (sc), vehicle: saline 110 % of control and 115 % of control | dose: 8.0 mg/kg/injection, schedule: Q01DX006 (iv), vehicle: saline 120 % of control | dose: 8.0 mg/kg/injection, schedule: Q01DX009 (oral), vehicle: saline 114 % of control | dose: 8.0 mg/kg/injection, schedule: Q01DX009 (sc), vehicle: saline 122 % of control | dose: 8.0 mg/kg/injection, schedule: Q04DX003 (ip), vehicle: saline 101 % of control and 107 % of control | dose: 8.0 mg/kg/injection, schedule: Q08DX002 (ip), vehicle: saline 110 % of control | dose: 10.0 mg/kg/injection, schedule: Q01DX009 (ip), vehicle: saline 116 % of control | dose: 16.0 mg/kg/injection, schedule: Q01DX001 (ip), vehicle: saline 108 % of control and 112 % of control | dose: 16.0 mg/kg/injection, schedule: Q01DX001 (iv), vehicle: saline 106 % of control and 107 % of control | dose: 16.0 mg/kg/injection, schedule: Q01DX001 (oral), vehicle: saline 107 % of control and 112 % of control | dose: 16.0 mg/kg/injection, schedule: Q01DX001 (sc), vehicle: saline 111 % of control and 118 % of control | dose: 16.0 mg/kg/injection, schedule: Q01DX006 (iv), vehicle: saline 122 % of control | dose: 16.0 mg/kg/injection, schedule: Q01DX009 (sc), vehicle: saline 89 % of control | dose: 16.0 mg/kg/injection, schedule: Q04DX003 (ip), vehicle: saline 100 % of control | dose: 16.0 mg/kg/injection, schedule: Q08DX002 (ip), vehicle: saline 106 % of control and 111 % of control | dose: 20.0 mg/kg/injection, schedule: Q01DX009 (ip), vehicle: saline 115 % of control | dose: 32.0 mg/kg/injection, schedule: Q01DX001 (ip), vehicle: saline 110 % of control | dose: 32.0 mg/kg/injection, schedule: Q01DX001 (oral), vehicle: saline 108 % of control and 118 % of control | dose: 32.0 mg/kg/injection, schedule: Q04DX003 (ip), vehicle: saline 107 % of control | dose: 32.0 mg/kg/injection, schedule: Q08DX002 (ip), vehicle: saline 102 % of control

CCCOC1=C2CCCCC2CC1 (stereo unspecified)
inactive: dose: 100.0 mg/kg/injection, schedule: Q01DX001 (ip), vehicle: saline 113 % of control | dose: 200.0 mg/kg/injection, schedule: Q01DX001 (ip), vehicle: saline 113 % of control | dose: 400.0 mg/kg/injection, schedule: Q01DX001 (ip), vehicle: saline 102 % of control
